± gives the standard deviation of the averaged measurements.
Tested on: SW982
Assay: relative viability vs DMSO control (72 h) (fraction); higher = more viable cells
How it was run: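 Sarcoma cell lines went into 384-well plates at densities chosen to reach 80–90% confluence. After 24 h, each well received 2.5 µl of serially diluted compound, with source plates running from 10 mM to 0.0002 mM, and the plates were kept 72 h at 37 °C, 5% CO2, alongside 0.1% DMSO vehicle and a 5 µM positive control. Relative viability was derived from ATPLite readings as percent growth and averaged over up to triplicate wells. The data were then rescaled so that 1 stands for full and 0 for none.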

CC(C)N1CCN(Cc2cnc(-c3cc(-c4cccc5[nH]ccc45)cc4[nH]ncc34)o2)CC1 [Nemiralisib]
relative viability (0.00017 µM): 0.946 ± 0.032
relative viability (0.00051 µM): 0.961 ± 0.044
relative viability (0.00152 µM): 0.918 ± 0.042
relative viability (0.00457 µM): 0.923 ± 0.038
relative viability (0.01372 µM): 0.954 ± 0.012
relative viability (0.04115 µM): 0.93 ± 0.061
relative viability (0.1235 µM): 0.916 ± 0.033
relative viability (0.3704 µM): 0.89 ± 0.056
relative viability (1.111 µM): 0.805 ± 0.039
relative viability (3.333 µM): 0.654 ± 0.032
relative viability (10 µM): 0.275 ± 0.014

Cc1ccc(NC(=O)c2ccc(CN3CCN(C)CC3)cc2)cc1Nc1nc(-c2cccnc2)cs1 [Masitinib]
relative viability (0.00017 µM): 0.965 ± 0.027
relative viability (0.00051 µM): 0.996 ± 0.01
relative viability (0.00152 µM): 0.989 ± 0.015
relative viability (0.00457 µM): 0.983 ± 0.02
relative viability (0.01372 µM): 0.97 ± 0.026
relative viability (0.04115 µM): 0.961 ± 0.033
relative viability (0.1235 µM): 0.923 ± 0.025
relative viability (0.3704 µM): 0.89 ± 0.027
relative viability (1.111 µM): 0.784 ± 0.045
relative viability (3.333 µM): 0.513 ± 0.03
relative viability (10 µM): 0.0613 ± 0.0081

CCc1cc2c(cc1N1CCC(N3CCOCC3)CC1)C(C)(C)c1[nH]c3cc(C#N)ccc3c1C2=O [Alectinib]
relative viability (0.00017 µM): 1.05 ± 0.043
relative viability (0.00051 µM): 1.06 ± 0.035
relative viability (0.00152 µM): 1.058 ± 0.0041
relative viability (0.00457 µM): 1.06 ± 0.026
relative viability (0.01372 µM): 1.04 ± 0.022
relative viability (0.04115 µM): 1.05 ± 0.017
relative viability (0.1235 µM): 1.032 ± 0.0038
relative viability (0.3704 µM): 1.05 ± 0.022
relative viability (1.111 µM): 1.07 ± 0.019
relative viability (3.333 µM): 1.06 ± 0.038
relative viability (10 µM): 1.06 ± 0.046

COc1cc2nccc(Oc3ccc(NC(=O)Nc4cc(C)on4)c(Cl)c3)c2cc1OC [Tivozanib]
relative viability (0.00017 µM): 1.06 ± 0.039
relative viability (0.00051 µM): 1.07 ± 0.048
relative viability (0.00152 µM): 1.06 ± 0.021
relative viability (0.00457 µM): 1.05 ± 0.037
relative viability (0.01372 µM): 1.08 ± 0.038
relative viability (0.04115 µM): 1.07 ± 0.033
relative viability (0.1235 µM): 1.08 ± 0.017
relative viability (0.3704 µM): 1.08 ± 0.046
relative viability (1.111 µM): 1.07 ± 0.058
relative viability (3.333 µM): 0.985 ± 0.029
relative viability (10 µM): 0.571 ± 0.021

From the supplement of paper PMC10883282
